ChEMBL document CHEMBL6109178, “Species-Dependent Metabolism of a Covalent nsP2 Protease Inhibitor with In Vivo Antialphaviral Activity” (J Med Chem, 2025)
Active and inactive are the calls of the source. The rule behind the calls is not given here.

Key:
Assay type in all cases: functional, organism-based
[1] = test system: Chikungunya virus; assay: Antiviral activity against CHIKV infected in male C57BL/6 mouse assessed as reduction in viral level in right quad at 100 mg/kg, administered three times a day and measured after 48 hrs
[2] = test system: Chikungunya virus; assay: Antiviral activity against CHIKV infected in male C57BL/6 mouse assessed as reduction in viral level in serum at 100 mg/kg, administered three times a day and measured after 48 hrs
[3] = test system: Chikungunya virus; assay: Antiviral activity against CHIKV infected in male C57BL/6 mouse assessed as reduction in viral level in right foot at 100 mg/kg, administered three times a day and measured after 48 hrs
[4] = test system: Chikungunya virus; assay: Antiviral activity against CHIKV infected in male C57BL/6 mouse assessed as reduction in viral level in left foot at 100 mg/kg, administered three times a day and measured after 48 hrs
[5] = test system: Chikungunya virus; assay: Antiviral activity against CHIKV infected in male C57BL/6 mouse assessed as reduction in viral level in spleen at 100 mg/kg, administered three times a day and measured after 48 hrs
[6] = test system: Chikungunya virus; assay: Antiviral activity against CHIKV infected in male C57BL/6 mouse assessed as reduction in viral level in left quad at 100 mg/kg, administered three times a day and measured after 48 hrs

For CCOc1ccccc1-c1cc(C(=O)NC/C=C/S(C)(=O)=O)n[nH]1, the Activity [1] was “Active”, the Activity [2] was “Active; Reduction Of Small Level Of Virus Level Observed” and the Activity [3] was “Active; Viral Level Reduced In 4 Out Of 5 Mouse”. The Activity [4] was “inactive”, the Activity [5] was “Active” and the Activity [6] was “Active”.
